Entries after “also recorded” stand apart in the source; their conditions may differ. Marks after values point to notes of the source that are not given here. Each block holds one molecule with its values, some of them ahead of it.
Key:
α1-adrenergic receptor = assay: [3H]prazosin displacement from brain membranes; format: binding, Wistar rat; settings: for α1-Adrenergic (% displacement at 3 μM): 3 μM test compound, 0.25 nM [3H]prazosin, duplicate; for α1-adrenergic binding: displacement of ligand at 3 μM
human NR1/NR2B = human NR1/NR2B (Homo sapiens, UniProt Q05586+Q13224); assay: Two electrode voltage clamp concentration-effect curve, human NR1/NR2B; format: cell-based
GluR1 = GluR1 (Rattus norvegicus, UniProt P19490); assay: Two electrode voltage clamp, homomeric GluR1 AMPA receptors in Xenopus oocytes; format: cell-based
GluR6 = GluR6 (Rattus norvegicus, UniProt P42260); format: cell-based
[1] = target: human ether-a-go-go potassium channel (hERG) (Homo sapiens, UniProt Q12809); assay: [3H]astemizole displacement, hERG expressed in HEK293 cells; format: binding
[2] = tested on: voltage-gated Na+ or K+ currents; format: cell-based, rat; settings: 3 μM; cultured cortical neurons; Na+ at −10 mV, K+ at +50 mV
rat NR1/NR2B = rat NR1/NR2B (Rattus norvegicus, UniProt P35439+Q00960); assay: Two electrode voltage clamp, recombinant NR1/NR2B in Xenopus oocytes; format: cell-based; settings: n = 5
NR1/NR2B(ΔATD) = NR1/NR2B(ΔATD) (Rattus norvegicus, UniProt Q00960); assay: Two electrode voltage clamp, amino terminal domain deletion mutant NR1/NR2B; format: cell-based; settings: maximal glutamate and glycine
MDR1 = assay: MDR1-MDCK permeability; format: in vitro ADME; settings: dog, MDCK-MDR1, pH 7.4

Chain of human ether-a-go-go potassium channel (hERG) (Q12809 whole entry): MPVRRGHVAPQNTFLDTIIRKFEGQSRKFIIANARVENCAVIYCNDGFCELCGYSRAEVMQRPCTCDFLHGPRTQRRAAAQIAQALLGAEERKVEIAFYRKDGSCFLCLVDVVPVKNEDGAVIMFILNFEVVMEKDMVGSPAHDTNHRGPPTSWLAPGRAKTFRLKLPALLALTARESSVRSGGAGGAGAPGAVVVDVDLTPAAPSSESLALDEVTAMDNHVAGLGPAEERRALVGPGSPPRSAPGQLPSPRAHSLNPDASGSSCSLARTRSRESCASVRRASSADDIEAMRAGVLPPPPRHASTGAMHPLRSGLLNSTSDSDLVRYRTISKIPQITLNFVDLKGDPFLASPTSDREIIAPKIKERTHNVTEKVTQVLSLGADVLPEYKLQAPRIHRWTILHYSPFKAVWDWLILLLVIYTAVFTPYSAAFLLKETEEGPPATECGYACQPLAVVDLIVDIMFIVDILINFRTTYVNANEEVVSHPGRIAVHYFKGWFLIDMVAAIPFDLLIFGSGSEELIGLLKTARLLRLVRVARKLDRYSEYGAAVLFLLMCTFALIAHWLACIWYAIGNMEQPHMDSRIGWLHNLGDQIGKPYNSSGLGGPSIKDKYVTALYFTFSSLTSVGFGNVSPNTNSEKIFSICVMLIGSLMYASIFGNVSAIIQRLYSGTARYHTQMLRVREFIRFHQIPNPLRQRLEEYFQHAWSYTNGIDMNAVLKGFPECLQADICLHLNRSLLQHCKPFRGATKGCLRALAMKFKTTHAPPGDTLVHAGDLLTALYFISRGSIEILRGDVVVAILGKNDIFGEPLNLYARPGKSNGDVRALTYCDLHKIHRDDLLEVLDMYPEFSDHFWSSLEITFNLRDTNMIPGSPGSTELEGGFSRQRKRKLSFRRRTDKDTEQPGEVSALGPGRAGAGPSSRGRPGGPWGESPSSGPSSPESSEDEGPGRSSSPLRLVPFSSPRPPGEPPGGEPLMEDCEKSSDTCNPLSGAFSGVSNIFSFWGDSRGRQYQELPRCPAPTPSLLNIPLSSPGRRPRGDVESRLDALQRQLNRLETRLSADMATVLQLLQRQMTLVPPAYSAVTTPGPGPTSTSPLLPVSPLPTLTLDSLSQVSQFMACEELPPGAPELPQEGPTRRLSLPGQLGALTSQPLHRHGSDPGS
Chain of GluR6 (P42260 32-908): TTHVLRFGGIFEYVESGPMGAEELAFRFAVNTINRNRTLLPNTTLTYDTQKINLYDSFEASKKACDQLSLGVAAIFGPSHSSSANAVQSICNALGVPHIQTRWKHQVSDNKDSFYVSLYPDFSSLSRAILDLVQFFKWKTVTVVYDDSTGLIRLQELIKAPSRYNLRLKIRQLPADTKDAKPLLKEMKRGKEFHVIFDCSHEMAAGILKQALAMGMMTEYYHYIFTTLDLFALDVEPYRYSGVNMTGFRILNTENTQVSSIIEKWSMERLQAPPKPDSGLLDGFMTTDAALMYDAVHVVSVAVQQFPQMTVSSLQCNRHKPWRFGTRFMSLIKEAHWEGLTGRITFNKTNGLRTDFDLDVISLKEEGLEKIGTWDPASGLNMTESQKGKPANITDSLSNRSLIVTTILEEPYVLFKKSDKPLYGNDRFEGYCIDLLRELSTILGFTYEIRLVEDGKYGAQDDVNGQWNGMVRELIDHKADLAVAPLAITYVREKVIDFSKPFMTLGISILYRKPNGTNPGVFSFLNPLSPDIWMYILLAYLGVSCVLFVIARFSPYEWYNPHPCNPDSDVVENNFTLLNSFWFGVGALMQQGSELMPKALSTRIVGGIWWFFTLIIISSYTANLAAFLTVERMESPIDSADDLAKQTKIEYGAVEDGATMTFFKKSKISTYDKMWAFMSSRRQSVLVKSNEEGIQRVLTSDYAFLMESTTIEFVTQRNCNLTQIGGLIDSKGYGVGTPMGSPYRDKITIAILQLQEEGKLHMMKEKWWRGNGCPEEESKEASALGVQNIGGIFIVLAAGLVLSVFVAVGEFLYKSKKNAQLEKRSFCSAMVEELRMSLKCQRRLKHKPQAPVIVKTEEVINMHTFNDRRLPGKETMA
Chain of human NR1/NR2B (Q13224 27-1484, other chains not shown): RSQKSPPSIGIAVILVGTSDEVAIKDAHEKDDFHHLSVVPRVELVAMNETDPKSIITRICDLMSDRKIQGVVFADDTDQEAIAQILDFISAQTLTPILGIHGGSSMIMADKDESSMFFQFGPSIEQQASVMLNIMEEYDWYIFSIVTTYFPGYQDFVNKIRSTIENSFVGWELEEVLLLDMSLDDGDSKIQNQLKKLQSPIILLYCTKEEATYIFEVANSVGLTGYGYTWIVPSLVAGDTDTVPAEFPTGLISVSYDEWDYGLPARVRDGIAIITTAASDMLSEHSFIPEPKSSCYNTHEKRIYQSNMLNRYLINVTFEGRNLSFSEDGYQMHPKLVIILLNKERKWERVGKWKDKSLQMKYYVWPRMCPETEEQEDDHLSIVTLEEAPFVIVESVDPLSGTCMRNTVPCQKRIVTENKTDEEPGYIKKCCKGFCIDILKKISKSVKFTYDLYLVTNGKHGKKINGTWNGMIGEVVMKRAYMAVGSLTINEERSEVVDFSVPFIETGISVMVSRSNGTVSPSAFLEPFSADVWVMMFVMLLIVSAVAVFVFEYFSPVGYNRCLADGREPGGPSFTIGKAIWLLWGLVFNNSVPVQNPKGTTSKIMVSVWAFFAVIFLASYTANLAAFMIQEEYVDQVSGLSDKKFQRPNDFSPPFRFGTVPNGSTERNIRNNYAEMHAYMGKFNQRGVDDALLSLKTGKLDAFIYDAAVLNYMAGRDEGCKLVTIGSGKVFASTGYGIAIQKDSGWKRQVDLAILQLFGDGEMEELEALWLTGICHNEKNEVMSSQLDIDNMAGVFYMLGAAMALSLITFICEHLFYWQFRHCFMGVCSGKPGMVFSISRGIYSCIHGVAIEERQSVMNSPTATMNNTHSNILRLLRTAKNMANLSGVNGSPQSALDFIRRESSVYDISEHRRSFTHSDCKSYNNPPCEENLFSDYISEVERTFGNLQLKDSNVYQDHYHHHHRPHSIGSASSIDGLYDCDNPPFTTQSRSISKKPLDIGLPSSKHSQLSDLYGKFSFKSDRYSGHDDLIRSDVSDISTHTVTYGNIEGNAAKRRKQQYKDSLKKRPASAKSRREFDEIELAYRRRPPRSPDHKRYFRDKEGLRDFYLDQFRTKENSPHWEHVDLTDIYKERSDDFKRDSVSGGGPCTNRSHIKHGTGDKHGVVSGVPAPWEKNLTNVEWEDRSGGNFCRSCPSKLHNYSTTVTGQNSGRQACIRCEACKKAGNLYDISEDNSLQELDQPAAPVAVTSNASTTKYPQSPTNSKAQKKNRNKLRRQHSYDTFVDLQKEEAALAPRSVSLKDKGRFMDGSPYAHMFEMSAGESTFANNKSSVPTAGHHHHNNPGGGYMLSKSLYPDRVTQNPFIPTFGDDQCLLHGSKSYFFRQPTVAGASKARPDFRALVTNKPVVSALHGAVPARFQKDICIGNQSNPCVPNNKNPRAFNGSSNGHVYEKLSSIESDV
Chain of GluR1 (P19490 19-907): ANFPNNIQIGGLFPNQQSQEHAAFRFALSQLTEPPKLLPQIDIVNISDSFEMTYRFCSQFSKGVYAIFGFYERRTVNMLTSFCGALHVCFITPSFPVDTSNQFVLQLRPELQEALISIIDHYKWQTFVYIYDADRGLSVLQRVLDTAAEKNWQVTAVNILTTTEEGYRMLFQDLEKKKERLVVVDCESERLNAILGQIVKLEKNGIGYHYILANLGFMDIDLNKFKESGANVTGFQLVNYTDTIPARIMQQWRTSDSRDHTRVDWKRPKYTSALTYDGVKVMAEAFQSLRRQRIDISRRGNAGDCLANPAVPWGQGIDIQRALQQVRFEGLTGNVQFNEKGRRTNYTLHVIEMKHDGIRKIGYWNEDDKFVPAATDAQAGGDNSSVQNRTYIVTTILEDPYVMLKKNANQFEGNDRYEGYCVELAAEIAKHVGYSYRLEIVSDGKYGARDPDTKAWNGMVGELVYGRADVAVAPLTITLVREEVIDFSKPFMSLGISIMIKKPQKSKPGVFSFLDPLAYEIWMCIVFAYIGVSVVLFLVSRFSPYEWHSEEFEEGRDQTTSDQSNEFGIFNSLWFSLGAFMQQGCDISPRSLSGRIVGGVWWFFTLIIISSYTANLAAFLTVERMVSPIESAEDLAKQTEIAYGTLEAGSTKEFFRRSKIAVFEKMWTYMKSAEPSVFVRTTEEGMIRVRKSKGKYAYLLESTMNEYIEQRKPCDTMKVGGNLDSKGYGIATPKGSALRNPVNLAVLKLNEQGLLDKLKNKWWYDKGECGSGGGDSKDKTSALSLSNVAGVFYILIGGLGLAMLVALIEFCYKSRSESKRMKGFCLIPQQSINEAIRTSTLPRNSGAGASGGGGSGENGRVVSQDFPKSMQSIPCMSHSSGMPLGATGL

IC50 (human NR1/NR2B): ~1 µM
Structure (SMILES): CS(=O)(=O)Nc1ccc(OCCNCC(=O)Nc2ccc(Cl)c(Cl)c2)cc1 [Compound 67, N-(3,4-Dichlorophenyl)-2-(2-(4-(methylsulfonamido)-phenoxy)ethylamino) acetamide]

α1-Adrenergic (% displacement at 3 μM) (α1-adrenergic receptor): <1%
α1-adrenergic binding (α1-adrenergic receptor): negligible
Structure (SMILES): CS(=O)(=O)Nc1ccc(CCCN2CCN(c3ccc(Cl)c(Cl)c3)C2=O)cc1 [Compound 70, N-(4-(3-(3-(3,4-Dichlorophenyl)-2-oxoimidazolidin-1-yl)propyl)phenyl)methanesulfonamide]

α1-adrenergic binding (α1-adrenergic receptor): negligible
Structure (SMILES): CS(=O)(=O)Nc1ccc(OCCN2CCN(c3ccc(Cl)c(Cl)c3)C2=O)cc1 [Compound 71, N-(4-(2-(3-(3,4-Dichlorophenyl)-2-oxoimidazolidin-1-yl)ethoxy)phenyl)methanesulfonamide]

The remaining lines, values behind:

Structure (SMILES): CS(=O)(=O)Nc1ccc(CCC(=O)NNC(=S)Nc2ccc(Cl)c(Cl)c2)cc1 [Compound 14, 4-(3,4-Dichlorophenyl)-1-(3-(4-(methylsulfonamido)-phenyl)propanoyl)thiosemicarbazide]
α1-Adrenergic (% displacement at 3 μM) (α1-adrenergic receptor): <1%

Structure (SMILES): CS(=O)(=O)Nc1ccc(CCC(=O)NNC(=O)Cc2ccc(Cl)c(Cl)c2)cc1 [Compound 16, N’-(2-(3,4-Dichlorophenyl)acetyl)-3-(4-(methylsulfonamido)phenyl)propanehydrazide]
IC50 (human NR1/NR2B): 5.75 µM
remaining activity at 3 µM (GluR1; read-out: GluR1 % response): 101 ± 0.5%
remaining activity at 3 µM (GluR6; read-out: GluR6 % response): 97 ± 1%

Structure (SMILES): CS(=O)(=O)Nc1ccc(CCC(=O)NCCNc2ccc(Cl)c(Cl)c2)cc1 [Compound 49, N-(2-(3,4-Dichlorophenylamino)ethyl)-3-(4-(methylsulfonamido)phenyl)propanamide]
α1-adrenergic binding (α1-adrenergic receptor): neither amide 49 or 52 showed any α1-adrenergic binding

Structure (SMILES): CS(=O)(=O)Nc1ccc(CCC(=O)NC/C=C/c2ccc(Cl)c(Cl)c2)cc1 [Compound 50, N-(3,4-Dichlorocinnamyl)-3-(4-(methylsulfonamido)-phenyl)propanamide]
α1-adrenergic binding (α1-adrenergic receptor): without actions
hERG (% displacement) at 3 μM ([1]; 3 μM test compound, 1.5 nM [3H]-astemizole): 47 ^* %

Structure (SMILES): CS(=O)(=O)Nc1ccc(OCC(=O)NCCNc2ccc(Cl)c(Cl)c2)cc1 [Compound 52, N-(2-(3,4-Dichlorophenylamino)ethyl)-2-(4-(meth-ylsulfonamido)phenoxy)acetamide]
α1-Adrenergic (% displacement at 3 μM) (α1-adrenergic receptor): <1%
α1-adrenergic binding (α1-adrenergic receptor): neither amide 49 or 52 showed any α1-adrenergic binding; also recorded: minimal
effect on voltage-gated Na+ or K+ currents [2]: no detectable effects
voltage dependence of inhibition (rat NR1/NR2B): voltage-independent
Ki [1]: ~12 µM
hERG binding [1]: minimal
effect on current response of NR1/NR2B(ΔATD) (NR1/NR2B(ΔATD)): virtually no effect
effect on recombinant AMPA (GluR1) receptors (GluR1; 3 μM): no detectable effects
effect on recombinant kainate receptors (GluR6) (GluR6; 3 μM): no detectable effects

Structure (SMILES): CS(=O)(=O)Nc1ccc(OCC(=O)NCCCc2ccc(Cl)c(Cl)c2)cc1 [Compound 54, N-(3-(3,4-Dichlorophenyl)propyl)-2-(4-(methylsulfonamido)phenoxy)acetamide]
α1-Adrenergic (% displacement at 3 μM) (α1-adrenergic receptor): <1%
α1-adrenergic binding (α1-adrenergic receptor): negligible
hERG binding [1]: negligible

Structure (SMILES): CS(=O)(=O)Nc1ccc(OCC(=O)N2CCN(c3ccc(Cl)c(Cl)c3)CC2)cc1 [Compound 57, N-(4-(2-(4-(3,4-Dichlorophenyl)piperazin-1-yl)-2-oxoethoxy)phenyl)methanesulfonamide]
Papp A→B at 2 h, 5 μM (MDR1): 4.8 ×10⁻⁶ cm/s

— article PMC2891242 (Bioorganic & medicinal chemistry, 2009)
